Here are results for 19 molecules from patent publication US20080269258A1, “Riboswitches, Structure-Based Compound Design with Riboswitches, and Methods and Compositions for Use of and with Riboswitches” (priority 2004, published 2008).

As a reminder, the Kd is the free concentration of one partner at which half of the binding sites on the other are occupied at equilibrium, for simple one-to-one binding.

Converted amounts (≈) assume the structure as drawn. Read-outs that look alike come from different tables or passages of the source.

The target in assay [1] is adenine riboswitch RNA (AR). As to the kind of experiment: Isothermal titration calorimetry, adenine riboswitch RNA. In kind it is binding. The note with it: 50 mM K+HEPES, pH 7.5, 100 mM KCl, 10 mM MgCl2, 30° C. How it is done:
Isothermal Titration Calorimetry. […] All experiments were performed with a Microcal MCS ITC instrument at 30° C. […] Titration data was analyzed using Origin ITC software (Microcal Software Inc.) and fit to a single-site binding model.
Background: ITC needs no label: the signal is the heat of the interaction.

In assay [2] the test system is guanine riboswitch RNA (GR). As to the kind of experiment: Isothermal titration calorimetry, guanine riboswitch RNA. In kind it is binding, B. subtilis. An excerpt: Isothermal Titration Calorimetry. RNA for isothermal titration calorimetry (ITC) (Leavitt, S. & Freire, E. Direct measurement of protein binding energetics by isothermal titration calorimetry. Curr Opin Struct Biol 11, 560-6 (2001); Pierce, M., Raman, C. S. & Nall, B. T. Isothermal titration calorimetry of protein-protein interactions. […]

For assay [3], the system named is guanine riboswitch (aptamer of the xpt-pbuX mRNA). As to the kind of experiment: In-line probing of ligand binding to the guanine riboswitch in vitro. The arrangement: species or system B. subtilis. The conditions noted are these: for Kd: high Mg2+ ion concentrations (20 mM MgCl2), read-out: observed dissociation constant (Kd). The source says: The putative anti-terminator interaction is represented by the boxes. Nucleotides that undergo structural alteration as determined by in-line probing (from C) are identified with squares. […] Asterisks denote alterations to the RNA sequence that facilitate in vitro transcription (5′ terminus) or that generate a restriction site (3′ terminus). Nucleotide numbers begin at the first nucleotide of the natural transcription start site. The translation start codon begins at position 186. […] Lanes designated NR, T1 and ^−OH contain RNA that was not reacted, subjected to partial digestion with RNase T1 (G-specific cleavage), or subjected to partial alkaline digestion, respectively. Selected bands corresponding to G-specific cleavage are identified.
Differences in chemical structure relative to guanine are encircled. Numbers on guanine represent the positions of the ring nitrogen atoms.
NR, T1 and OH identify no reaction, nuclease T1 partial digestion, and alkaline partial digestion respectively. In-line probing assays were conducted for ˜1 day, and a dampening of spontaneous RNA cleavage product bands in the J1/2, J2/3 and J3/1 regions are indicative of ligand binding.

Another assay concerns the target purR repressor protein (Escherichia coli, UniProt P0ACP7). The conditions noted are these: read-out: observed Kd; E. coli variant of purR repressor; cited from earlier work.
Assay [4] concerns methicillin-resistant Staphylococcus aureus. As to the kind of experiment: Minimal inhibitory concentration, clinically relevant pathogens. In kind it is cell-based. The note with it: MRSA, read-out: Minimal inhibitory concentrations, MRSA.
For another assay, the system named is Bacillus anthracis. As to the kind of experiment: microbe, parasite or virus in culture. In kind it is cell-based. The note with it: read-out: Minimal inhibitory concentrations, BA.
Another assay concerns Streptococcus pneumoniae. As to the kind of experiment: Minimal inhibitory concentration, clinically relevant pathogens. In kind it is cell-based. The note with it: read-out: Minimal inhibitory concentrations, SP.
The subject of the next assay is Haemophilus influenza. The assay is described as above. The conditions noted are these: pathogen without guanine riboswitch, read-out: Minimal inhibitory concentrations, HI. In kind it is cell-based.
In the next assay the test system is Mycobacterium smegmatis. The assay is described as above. The note with it: Mycolicibacterium smegmatis; pathogen without guanine riboswitch; read-out: Minimal inhibitory concentrations, MS. In kind it is cell-based.
[5] abbreviates: 50 mM K+HEPES, 100 mM KCl, 10 mM MgCl2, 30° C.
Where [6] appears, read: 50 mM K+HEPES, 100 mM KCl, 10 mM MgCl2, 30° C., read-out: Kd.

Chain of purR repressor protein (P0ACP7 whole entry): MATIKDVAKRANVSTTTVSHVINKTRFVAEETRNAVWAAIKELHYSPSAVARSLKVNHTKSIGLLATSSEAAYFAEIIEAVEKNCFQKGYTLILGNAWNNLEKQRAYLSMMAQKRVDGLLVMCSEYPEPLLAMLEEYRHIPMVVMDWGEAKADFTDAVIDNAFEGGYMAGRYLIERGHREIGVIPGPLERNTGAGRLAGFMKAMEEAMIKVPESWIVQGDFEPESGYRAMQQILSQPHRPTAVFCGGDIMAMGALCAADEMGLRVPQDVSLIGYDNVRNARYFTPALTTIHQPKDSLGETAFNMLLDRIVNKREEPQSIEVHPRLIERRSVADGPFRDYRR

For the molecule `Nc1nc(N)c(N)c(N)n1` [2,4,5,6-Tetraaminopyrimidine], in [1], the Kd turned out to be 24.9 ± 4.25 µM, the ΔH is -43.2 ± 3.50 kcal/mol and the ΔS was −122 ± 12.0 Cal/mol · deg.

In [1], `Nc1cc(N)nc(N)n1` [2,4,6-Triaminopyrimidine] had a Kd of 18.3 ± 1.67 µM, a ΔH of -37.7 ± 0.23 kcal/mol and a ΔS of −102 ± 0.70 Cal/mol · deg.

In assay [1], `Nc1nc(N)c2[nH]cnc2n1` [2,6-Diaminopurine] gave a Kd of 0.017 ± 0.006 µM, a ΔH of -40.3 ± 2.91 kcal/mol and a ΔS of −97.6 ± 4.00 Cal/mol · deg.

In assay [2] (setting [5]), `Nc1ncc2[nH]cnc2n1` [2-Aminopurine] gave a ΔH of -46.4 ± 2.66 kcal/mol and a ΔS of −129 ± 8.20 cal/mol · deg. In assay [2] (setting [6]), the Kd came to 4.36 ± 1.2 µM. In [1], this molecule came in with a Kd of 0.251 ± 0.026 µM, a ΔH of -31.8 ± 2.64 kcal/mol and a ΔS of −73.9 ± 9.26 Cal/mol · deg.

In assay [1], `Nc1nc(F)nc2nc[nH]c12` [2-Fluoroadenine] displayed a Kd of 4.02 ± 1.07 µM, a ΔH of -37.4 ± 3.41 kcal/mol and a ΔS of −98.7 ± 11.8 Cal/mol · deg.

In assay [2] (setting [5]), `Nc1nc(Br)c2[nH]cnc2n1` [6-Bromoguanine] returned a ΔH of -39.0 ± 7.79 kcal/mol and a ΔS of −103 ± 26.2 cal/mol · deg. Also, in [2] (setting [6]), the Kd came out at 2.12 ± 0.56 µM. For the same molecule, in [1], binding was characterised by a dissociation constant (Kd) of 2.7 ± 1.16 µM, the ΔH was -50.4 ± 0.16 kcal/mol and the ΔS is −141 ± 1.90 Cal/mol · deg.

As to `Nc1nc(Cl)c2nc[nH]c2n1` [6-Chloroguanine], the ΔH is -43.6 ± 13.1 kcal/mol in [2] (setting [5]) and -44.3 ± 7.2 kcal/mol in assay [1]. Moreover, the ΔS in assay [2] (setting [5]) is −116 ± 43.2 cal/mol · deg; in assay [1], −98.6 ± 4.39 Cal/mol · deg. The Kd in assay [2] (setting [6]) was 0.856 ± 0.014 µM; in [1] it was 0.721 ± 0.044 µM.

Turning to `Cc1ncnc2nc[nH]c12` [6-Methylpurine], in assay [1], the dissociation constant (Kd) was determined as 25.2 ± 1.63 µM, the ΔH is -31.5 ± 0.42 kcal/mol and the ΔS is on record as −82.9 ± 1.25 Cal/mol · deg.

In [2] (setting [5]), `CSc1nc(N)nc2nc[nH]c12` [6-Methylthioguanine] yielded a ΔH of -24.5 ± 0.20 kcal/mol and a ΔS of −46.9 ± 0.24 cal/mol · deg. Also, the Kd in assay [2] (setting [6]) turned out to be 0.0418 ± 0.003 µM.

In [2] (setting [5]), `Nc1nc2nc[nH]c2c(=S)[nH]1` [6-Thioguanine] had a ΔH of -40.6 ± 14.5 kcal/mol and a ΔS of −101 ± 47.5 cal/mol · deg. Also, in assay [2] (setting [6]), the Kd is 0.0737 ± 0.01 µM.

Consider `Nc1nc2c(c(=O)[nH]1)CC=N2` [7-Deazaguanine], for which, in [2] (setting [5]), the ΔH is -42.0 ± 3.72 kcal/mol and the ΔS is listed as −105 ± 11.7 cal/mol · deg. In assay [2] (setting [6]), the Kd came out at 0.049 ± 0.013 µM.

For `Nc1ncnc2nc[nH]c12` [Adenine], in assay [1], binding was put at a Kd of 0.469 ± 0.041 µM, the ΔH is -34.5 ± 0.05 kcal/mol and the ΔS is recorded as −84.8 ± 0.30 Cal/mol · deg.

Take `Nc1nc2nn[nH]c2c(=O)[nH]1` [Compound 8-Azaguanine, 8-Azaguanine]: in [2] (setting [5]), the ΔH was -46.9 ± 9.87 kcal/mol and the ΔS is reported as −121 ± 32.6 cal/mol · deg. Further, the Kd in assay [2] (setting [6]) came to 0.0487 ± 0.1 µM.

As for `Nc1nc2nc[nH]c2c(=O)[nH]1` [Guanine], in assay [3], the “affinity of the riboswitch for guanine over hypoxanthine” value was “tenfold” and the Kd is 0.005 µM. For the same molecule, in assay [2] (setting [5]), the ΔH is -53.5 ± 6.98 kcal/mol and the ΔS is recorded as −137 ± 24.8 cal/mol · deg. Also, the Kd in assay [2] (setting [6]) is 0.004 ± 0.003 µM.

As to `O=c1[nH]cnc2nc[nH]c12` [Hypoxanthine], the equilibrium dissociation constant (Kd) in [3] was determined as 0.05 µM; in [2] (0.25 mM MgCl2, 30° C., read-out: Kd), 4 ± 0.19 µM; in assay [2] (1.0 mM MgCl2, 30° C., read-out: Kd) it was 2.99 ± 0.19 µM; in assay [2] (5.0 mM MgCl2, 30° C., read-out: Kd) it was 1.34 ± 0.094 µM; in [2] (20 mM MgCl2, 30° C., read-out: Kd) it was 0.732 ± 0.034 µM; in [2] (setting [6]), 0.759 ± 0.066 µM. Also, the Kd was 3 to 4 µM in assay [2] (ITC, more physiological ionic strength (0.25-1 mM Mg2+), read-out: observed Kd) and 9 µM at purR repressor protein. Also, the ΔHobs is -41.9 ± 0.39 kcal/mol in [2] (0.25 mM MgCl2, 30° C.); -35.4 ± 0.93 kcal/mol in assay [2] (1.0 mM MgCl2, 30° C.); -28.4 ± 0.48 kcal/mol in assay [2] (5.0 mM MgCl2, 30° C.); -33.5 ± 0.43 kcal/mol in [2] (20 mM MgCl2, 30° C.). The ΔSobs in assay [2] (0.25 mM MgCl2, 30° C.) was −113 cal mol^−1 K^−1; in assay [2] (1.0 mM MgCl2, 30° C.), −91 cal mol^−1 K^−1; in assay [2] (5.0 mM MgCl2, 30° C.) it was −67 cal mol^−1 K^−1; in [2] (20 mM MgCl2, 30° C.), −82 cal mol^−1 K^−1. The molecule also showed a ΔH in [2] (setting [5]) of -31.3 ± 0.01 kcal/mol. Besides, the ΔS in assay [2] (setting [5]) is −75.3 ± 0.145 cal/mol · deg.

In [2] (setting [5]), `COc1nc(N)nc2nc[nH]c12` [O-Methylguanine] returned a ΔH of -18.7 kcal/mol and a ΔS of −23.3 cal/mol · deg. Besides, in assay [2] (setting [6]), the Kd was found to be 0.003 µM.

In assay [1], `c1ncc2[nH]cnc2n1` [Purine] displayed a Kd of 110 ± 3 µM, a ΔH of -25.4 ± 0.99 kcal/mol and a ΔS of −65.4 ± 3.00 Cal/mol · deg.

Turning to `CN[C@H](CC(C)C)C(=O)N[C@H]1C(=O)N[C@@H](CC(N)=O)C(=O)N[C@H]2C(=O)N[C@H]3C(=O)N[C@H](C(=O)N[C@H](C(=O)O)c4cc(O)cc(O)c4-c4cc3ccc4O)[C@H](O)c3ccc(c(Cl)c3)Oc3cc2cc(c3O[C@@H]2O[C@H](CO)[C@@H](O)[C@H](O)[C@H]2O[C@H]2C[C@](C)(N)[C@H](O)[C@H](C)O2)Oc2ccc(cc2Cl)[C@H]1O` [Vancomycin], the MIC came to 1 µg/mL (≈ 0.69 µM) in [4]; 1.5 µg/mL (≈ 1.04 µM) with Bacillus anthracis; 0.25 µg/mL (≈ 0.173 µM) in the assay on Streptococcus pneumoniae; 64 µg/mL (≈ 44.2 µM) in the assay with Haemophilus influenza; 24 µg/mL (≈ 16.6 µM) with Mycobacterium smegmatis.

In the case of `O=c1[nH]c(=O)c2[nH]cnc2[nH]1` [Xanthine], in assay [2] (setting [5]), the ΔH was -34.6 ± 10.4 kcal/mol and the ΔS is −94.4 ± 34.5 cal/mol · deg. Moreover, in assay [2] (setting [6]), the Kd turned out to be 50.5 ± 5.8 µM.
